{"source": "patent US20150045410A1", "about": "“METHOD OF REGULATING CFTR EXPRESSION AND PROCESSING” (University of Iowa Research Foundation, priority 2012, published 2015)", "key": {"CFTR": {"system": "CFTR", "test": "Transepithelial conductance and current (Ussing chamber) in primary human airway epithelia", "assay_type": "cell-based", "protocol": "Airway epithelia from human trachea and primary bronchus removed from organs donated for research were cultured at the air-liquid interface (ALI) (Karp, P. H. et al. An in vitro model of differentiated human airway epithelia. Methods for establishing primary cultures. Methods Mol. Biol. 188, 115-137 (2002)). These studies were approved by the Institutional Review Board of the University of Iowa. Briefly, airway epithelial cells were dissociated from native tissue by pronase enzyme digestion. Permeable membrane inserts (0.6 cm^2 Millipore-PCF, 0.33 cm^2 Costar-Polyester) pre-coated with human placental collagen (IV, Sigma) were seeded with freshly dissociated epithelia. Seeding culture media used was DMEM/F-12 medium supplemented with 5% FBS, 50 units/mL penicillin, 50 μg/mL streptomycin, 50 μg/mL gentamicin, 2 μg/mL fluconazole, and 1.25 μg/mL amphotericin B. For epithelia from cystic fibrosis (CF) patients, the following additional antibiotics were used for the first 5 days: 77 μg/mL ceftazidime, 12.5 μg/mL imipenem and cilastatin, 80 μg/mL tobramycin, 25 μg/mL piperacillin and tazobactam, 20 μg/mL sulfamethoxazole, and 4 μg/mL trimethoprim. After seeding, the cultures were maintained in DMEM/F-12 medium supplemented with 2% Ultroser G (USG, Pall Biosepra) and the above listed antibiotics.\nTransepithelial Cl^− current measurements were made in Ussing chambers about 2 weeks post-seeding (Itani, 0. A. et al. Human cystic fibrosis airway epithelia have reduced Cl− conductance but not increased Na+ conductance. Proc. Natl. Acad. Sci. USA 108, 10260-10265 (2011)). Briefly, primary cultures were mounted in a modified Ussing chamber (Jim's Instruments, 8 wells per instrument). Transepithelial Cl^− current was measured under short-circuit current conditions. Cultures were incubated overnight with 10 μM forskolin and 100 μM 3-isobutyl-1-methylxanthine (IBMX). After measuring baseline current, the transepithelial current (It) response to sequential apical addition of 100 μM amiloride (Amil), 100 μM 4,4′-diisothiocyanoto-stilbene-2,2′-disulfonic acid (DIDS), 4.8 mM [Cl^−], 10 μM forskolin and 100 μM 3-isobutyl-1-methylxanthine (IBMX), and 100 μM GlyH-101 was measured. Studies were conducted with a Cl^− concentration gradient containing 135 mM NaCl, 1.2 mM MgCl2, 1.2 mM CaCl2, 2.4 mM K2PO4, 0.6 mM KH2PO4, 5 mM dextrose, and 5 mM Hepes (pH 7.4) on the basolateral surface, and gluconate substituted for Cl^− on the apical side. […]"}, "CFTR-ΔF508": {"system": "CFTR-ΔF508", "test": "CFTR-mediated Cl^− transport (transepithelial current) in primary CF airway epithelia", "assay_type": "cell-based, human", "settings": "multiple donors, oligonucleotide transfection, F&I then GlyH-101", "protocol": "FIG. 27. […] Change in It following F&I+PG-01 treatment of primary CF airway epithelial cells (homozygous for ΔF508-CFTR) with indicated reagents. N=1 donor. PG-01 is a potentiator used along with F&I to increase Cl^− transport.\nAirway epithelia from human trachea and primary bronchus removed from organs donated for research were cultured at the air-liquid interface (ALI) (Karp, P. H. et al. An in vitro model of differentiated human airway epithelia. Methods for establishing primary cultures. Methods Mol. Biol. 188, 115-137 (2002)). These studies were approved by the Institutional Review Board of the University of Iowa. Briefly, airway epithelial cells were dissociated from native tissue by pronase enzyme digestion. […]\nTransepithelial Cl^− current measurements were made in Ussing chambers about 2 weeks post-seeding (Itani, 0. A. et al. Human cystic fibrosis airway epithelia have reduced Cl− conductance but not increased Na+ conductance. Proc. Natl. Acad. Sci. USA 108, 10260-10265 (2011)). […] Transepithelial Cl^− current was measured under short-circuit current conditions. […] After measuring baseline current, the transepithelial current (It) response to sequential apical addition of 100 μM amiloride (Amil), 100 μM 4,4′-diisothiocyanoto-stilbene-2,2′-disulfonic acid (DIDS), 4.8 mM [Cl^−], 10 μM forskolin and 100 μM 3-isobutyl-1-methylxanthine (IBMX), and 100 μM GlyH-101 was measured. […]"}}}
{"substance": "miR-138 mimic: synthetic modified RNA duplex, sense SEQ ID NO: 4, antisense SEQ ID NO: 5, showing miR-138-like activity", "values": [{"measurement": "It (transepithelial current) response to cAMP-dependent stimulation", "setting": "CFTR", "value": "no change"}, {"measurement": "cAMP-stimulated Gt", "setting": "CFTR", "value": "increased"}, {"measurement": "CFTR-mediated Cl^− transport", "setting": "CFTR-ΔF508", "value": "restored"}]}
{"substance": "SIN3A DsiRNA: Dicer-substrate siRNA against SIN3A, sense SEQ ID NO: 6, antisense SEQ ID NO: 7 (sense GCGAUACAUGAAUUCAGAUACUACC; antisense GGUAGUAUCUGAAUUCAUGUAUCGCUC; chemistry not given here)", "values": [{"measurement": "It (transepithelial current) response to cAMP-dependent stimulation", "setting": "CFTR", "value": "no change"}, {"measurement": "cAMP-stimulated Gt", "setting": "CFTR", "value": "increased"}, {"measurement": "CFTR-mediated Cl^− transport", "setting": "CFTR-ΔF508", "value": "restored"}]}
